{
  "source": "patent US20260256792A1",
  "about": "“TREATMENT OF CHRONIC SPONTANEOUS URTICARIA BY ADMINISTERING (R)-2-[3-[4-AMINO-3-(2-FLUORO-4-PHENOXY-PHENYL)PYRAZOLO[3,4-D]PYRIMIDIN-1-YL]PIPERIDINE-1-CARBONYL]-4-METHYL-4-[4-(OXETAN-3-YL)PIPERAZIN-1-YL]PENT-2-ENENITRILE” (priority 2023, published 2026)",
  "tested_on": "moderate-to-severe chronic spontaneous urticaria (CSU)",
  "experiment": "Phase 2 CSU study: urticaria activity score over 7 days (UAS7)",
  "assay_type": "in vivo, human",
  "design": "key to UAS7 Median / UAS7 Change from baseline Median / UAS7 change from baseline, Q1 / UAS7 change from baseline, Q3 / UAS7 change from baseline, Max / UAS7 Change from baseline LS Mean (SE): UAS7 points; daily UAS score ranges 0–6 points/day, over 7 days",
  "from_the_text": "The study comprises a 12 week, randomized, double-blind, placebo-controlled, multi-center, dose-ranging efficacy and safety phase, followed by a 40 week open label extension (OLE) phase (see FIG. 1). The study consists of three phases and an optional OLE phase. […] Clinically, CSU is characterized by the spontaneous and recurrent appearance of pruritic hives. The proposed primary endpoints were the UAS7 at Week 12 in EU and EU reference countries and the ISS7 in the US. Regardless of where a participant was from, all assessments were the same. The UAS7 score is a composite score containing both the HSS7 and the ISS7. This allowed a global assessment of the two key components of urticaria: hives and itch. […] The UAS is a validated PRO measure. […] The daily UAS scores range from 0 to 6 point/day. […] Patients were to complete the UAS using the e-diary. […] The following secondary endpoints were to be analyzed using the same approach as for the primary endpoint: • Change from baseline in UAS7 at Week 4 • Change from baseline in UAS7 at Week 12 (for US and US reference countries) • Change from baseline in ISS7 at Week 12 (except US and US reference countries) • Change from baseline in HSS7 at Week 12 The following responder secondary endpoints were to be analyzed using the Cochran-Mantel-Haenszel test adjusted by region: • Proportion of participants with UAS7<6 at Week 12 • Proportion of participants with UAS7=0 at Week 12 Participants who received selected prohibited medications and/or rescue medications were to be considered as non-responders for time points after the medication usage. For other participants, all available data including those collected during the off-treatment period were to be used to determine the responder/non-responder status. Missing data were to be considered as non-responders.",
  "key": {"[1]": {"conditions": "Week 7, 400 mg BID, Prior Omalizumab Use"}, "[2]": {"conditions": "Week 7, 400 mg BID, omalizumab-naive participants"}, "[3]": {"conditions": "Week 7, 400 mg QPM, ITT population"}, "[4]": {"conditions": "Week 7, 400 mg QPM, Omalizumab-Naïve"}, "[5]": {"conditions": "Week 7, 400 mg QPM, Prior Omalizumab Use"}, "[6]": {"conditions": "Week 7, 400 mg QPM, omalizumab-naive participants"}, "[7]": {"conditions": "Week 7, 400 mg TID, ITT population"}, "[8]": {"conditions": "Week 7, 400 mg TID, Omalizumab-Naïve"}, "[9]": {"conditions": "Week 7, 400 mg TID, Prior Omalizumab Use"}, "[10]": {"conditions": "Week 7, 400 mg TID, omalizumab-naive participants"}, "[11]": {"conditions": "Week 8, 400 mg BID, ITT population"}, "[12]": {"conditions": "Week 8, 400 mg BID, Omalizumab-Naïve"}, "[13]": {"conditions": "Week 8, 400 mg BID, Prior Omalizumab Use"}, "[14]": {"conditions": "Week 8, 400 mg BID, omalizumab-naive participants"}},
  "data": [
    {"smiles": "CC(C)(C=C(C#N)C(=O)N1CCC[C@@H](n2nc(-c3ccc(Oc4ccccc4)cc3F)c3c(N)ncnc32)C1)N1CCN(C2COC2)CC1", "note": "[rilzabrutinib, (R)-2-[3-[4-amino-3-(2-fluoro-4-phenoxy-phenyl)pyrazolo[3,4-d]pyrimidin-1-yl]piperidine-1-carbonyl]-4-methyl-4-[4-(oxetan-3-yl)piperazin-1-yl]pent-2-enenitrile]", "values": [
      {"measurement": "UAS7 Percent change from baseline Median", "setting": "Week 7, 400 mg BID, Omalizumab-Naïve", "value": "−48.28", "unit": "%"},
      {"measurement": "UAS7 Change from baseline Mean (SD)", "setting": "[1]", "value": "−20.40 (19.58)"},
      {"measurement": "UAS7 Change from baseline Median", "setting": "[1]", "value": "−25.00"},
      {"measurement": "UAS7 Mean (SD)", "setting": "[1]", "value": "11.60 (15.79)"},
      {"measurement": "UAS7 Median", "setting": "[1]", "value": 2.00},
      {"measurement": "UAS7 Percent change from baseline Mean (SD)", "setting": "[1]", "value": "−58.52 (53.51) %"},
      {"measurement": "UAS7 Percent change from baseline Median", "setting": "[1]", "value": "−92.59", "unit": "%"},
      {"measurement": "Non-responder, UAS7 reduction from baseline of 10 points or more", "setting": "[2]", "value": "15 (42.9) n (%)"},
      {"measurement": "OR for rilzabrutinib vs. placebo, UAS7 reduction of 10 points or more", "setting": "[2]", "value": 2.154},
      {"measurement": "RRD (%) for rilzabrutinib vs. placebo, UAS7 reduction of 10 points or more", "setting": "[2]", "value": 18.5, "unit": "%"},
      {"measurement": "Responder, UAS7 reduction from baseline of 10 points or more", "setting": "[2]", "value": "20 (57.1) n (%)"},
      {"measurement": "Non-responder, UAS7 reduction from baseline of 10 points or more", "setting": "[3]", "value": "22 (57.9) n (%)"},
      {"measurement": "OR for rilzabrutinib vs. placebo, UAS7 reduction of 10 points or more", "setting": "[3]", "value": 1.159},
      {"measurement": "RRD (%) for rilzabrutinib vs. placebo, UAS7 reduction of 10 points or more", "setting": "[3]", "value": 3.5, "unit": "%"},
      {"measurement": "Responder, UAS7 reduction from baseline of 10 points or more", "setting": "[3]", "value": "16 (42.1) n (%)"},
      {"measurement": "UAS7 Change from baseline Mean (SD)", "setting": "[4]", "value": "−10.92 (10.06)"},
      {"measurement": "UAS7 Change from baseline Median", "setting": "[4]", "value": "−9.00"},
      {"measurement": "UAS7 Mean (SD)", "setting": "[4]", "value": "21.11 (10.03)"},
      {"measurement": "UAS7 Median", "setting": "[4]", "value": 18.20},
      {"measurement": "UAS7 Percent change from baseline Mean (SD)", "setting": "[4]", "value": "−33.33 (28.49) %"},
      {"measurement": "UAS7 Percent change from baseline Median", "setting": "[4]", "value": "−36.11", "unit": "%"},
      {"measurement": "UAS7 Change from baseline Mean (SD)", "setting": "[5]", "value": "−24.00 (NC)"},
      {"measurement": "UAS7 Change from baseline Median", "setting": "[5]", "value": "−24.00"},
      {"measurement": "UAS7 Mean (SD)", "setting": "[5]", "value": "17.00 (NC)"},
      {"measurement": "UAS7 Median", "setting": "[5]", "value": 17.00},
      {"measurement": "UAS7 Percent change from baseline Mean (SD)", "setting": "[5]", "value": "−58.54 (NC) %"},
      {"measurement": "UAS7 Percent change from baseline Median", "setting": "[5]", "value": "−58.54", "unit": "%"},
      {"measurement": "Non-responder, UAS7 reduction from baseline of 10 points or more", "setting": "[6]", "value": "22 (59.5) n (%)"},
      {"measurement": "OR for rilzabrutinib vs. placebo, UAS7 reduction of 10 points or more", "setting": "[6]", "value": 1.096},
      {"measurement": "RRD (%) for rilzabrutinib vs. placebo, UAS7 reduction of 10 points or more", "setting": "[6]", "value": 2.2, "unit": "%"},
      {"measurement": "Responder, UAS7 reduction from baseline of 10 points or more", "setting": "[6]", "value": "15 (40.5) n (%)"},
      {"measurement": "Non-responder, UAS7 reduction from baseline of 10 points or more", "setting": "[7]", "value": "16 (39.0) n (%)"},
      {"measurement": "OR for rilzabrutinib vs. placebo, UAS7 reduction of 10 points or more", "setting": "[7]", "value": 2.334},
      {"measurement": "RRD (%) for rilzabrutinib vs. placebo, UAS7 reduction of 10 points or more", "setting": "[7]", "value": 18.7, "unit": "%"},
      {"measurement": "Responder, UAS7 reduction from baseline of 10 points or more", "setting": "[7]", "value": "25 (61.0) n (%)"},
      {"measurement": "UAS7 Change from baseline Median", "setting": "[8]", "value": "−15.00"},
      {"measurement": "UAS7 Mean (SD)", "setting": "[8]", "value": "13.54 (9.34)"},
      {"measurement": "UAS7 Median", "setting": "[8]", "value": 14.00},
      {"measurement": "UAS7 Percent change from baseline Mean (SD)", "setting": "[8]", "value": "−54.22 (30.59) %"},
      {"measurement": "UAS7 Percent change from baseline Median", "setting": "[8]", "value": "−52.50", "unit": "%"},
      {"measurement": "UAS7 Change from baseline Mean (SD)", "setting": "[9]", "value": "−20.86 (14.89)"},
      {"measurement": "UAS7 Change from baseline Median", "setting": "[9]", "value": "−16.00"},
      {"measurement": "UAS7 Mean (SD)", "setting": "[9]", "value": "12.17 (10.21)"},
      {"measurement": "UAS7 Percent change from baseline Mean (SD)", "setting": "[9]", "value": "−58.95 (28.44) %"},
      {"measurement": "UAS7 Percent change from baseline Median", "setting": "[9]", "value": "−51.29", "unit": "%"},
      {"measurement": "Non-responder, UAS7 reduction from baseline of 10 points or more", "setting": "[10]", "value": "13 (37.1) n (%)"},
      {"measurement": "OR for rilzabrutinib vs. placebo, UAS7 reduction of 10 points or more", "setting": "[10]", "value": 2.765},
      {"measurement": "RRD (%) for rilzabrutinib vs. placebo, UAS7 reduction of 10 points or more", "setting": "[10]", "value": 22.3, "unit": "%"},
      {"measurement": "Responder, UAS7 reduction from baseline of 10 points or more", "setting": "[10]", "value": "22 (62.9) n (%)"},
      {"measurement": "Non-responder, UAS7 reduction from baseline of 10 points or more", "setting": "[11]", "value": "17 (41.5) n (%)"},
      {"measurement": "OR for rilzabrutinib vs. placebo, UAS7 reduction of 10 points or more", "setting": "[11]", "value": 1.985},
      {"measurement": "RRD (%) for rilzabrutinib vs. placebo, UAS7 reduction of 10 points or more", "setting": "[11]", "value": 17.5, "unit": "%"},
      {"measurement": "Responder, UAS7 reduction from baseline of 10 points or more", "setting": "[11]", "value": "24 (58.5) n (%)"},
      {"measurement": "UAS7 Change from baseline Mean (SD)", "setting": "[12]", "value": "−15.64 (11.76)"},
      {"measurement": "UAS7 Change from baseline Median", "setting": "[12]", "value": "−16.00"},
      {"measurement": "UAS7 Mean (SD)", "setting": "[12]", "value": "13.98 (13.06)"},
      {"measurement": "UAS7 Median", "setting": "[12]", "value": 10.00},
      {"measurement": "UAS7 Percent change from baseline Mean (SD)", "setting": "[12]", "value": "−54.37 (38.23) %"},
      {"measurement": "UAS7 Percent change from baseline Median", "setting": "[12]", "value": "−64.29", "unit": "%"},
      {"measurement": "UAS7 Change from baseline Mean (SD)", "setting": "[13]", "value": "−21.00 (19.13)"},
      {"measurement": "UAS7 Change from baseline Median", "setting": "[13]", "value": "−26.00"},
      {"measurement": "UAS7 Mean (SD)", "setting": "[13]", "value": "11.00 (15.67)"},
      {"measurement": "UAS7 Median", "setting": "[13]", "value": 1.00},
      {"measurement": "UAS7 Percent change from baseline Mean (SD)", "setting": "[13]", "value": "−61.16 (51.62) %"},
      {"measurement": "UAS7 Percent change from baseline Median", "setting": "[13]", "value": "−96.30", "unit": "%"},
      {"measurement": "Non-responder, UAS7 reduction from baseline of 10 points or more", "setting": "[14]", "value": "14 (40.0) n (%)"},
      {"measurement": "OR for rilzabrutinib vs. placebo, UAS7 reduction of 10 points or more", "setting": "[14]", "value": 2.484}
    ]}
  ]
}
